This is an account of results in publication PMC7785372, “An UPLC-MS/MS Method for Determination of Osimertinib in Rat Plasma: Application to Investigating the Effect of Ginsenoside Rg3 on the Pharmacokinetics of Osimertinib” (International Journal of Analytical Chemistry, 2020).

Read-outs that look alike come from different tables or passages of the source.

Series [1] in a line: Stability of osimertinib in rat plasma under various storage conditions (QC samples, UPLC-MS/MS). It counts as physicochemical. As to conditions: for Autosampler stability, RE / Autosampler stability, measured concentration Mean ± SD: processed rat plasma sample, 4°C for 24 h; for Autosampler stability, RE / Autosampler stability, measured concentration Mean ± SD / Short-term stability, RE / Short-term stability, measured concentration Mean ± SD / Freeze-thawing stability, RE / Freeze-thawing stability, measured concentration Mean ± SD / Long-term stability, RE / Long-term stability, measured concentration Mean ± SD: n = 6; for Short-term stability, RE / Short-term stability, measured concentration Mean ± SD: room temperature for 6 h; for Freeze-thawing stability, RE / Freeze-thawing stability, measured concentration Mean ± SD: −80°C for 3 cycles. How it is done:
(1) Short-Term Stability. QC samples (low, medium, and high levels) were assessed by analyzing QC samples kept at room temperature for six hours.
(2) Autosampler Stability. QC samples (low, medium, and high levels) were evaluated after the processed QC samples were placed in an autosampler (4°C) for 24 hours.
(3) Freeze-Thaw Stability. QC samples (low, medium, and high levels) were investigated after storage at room temperature for 8 h, followed by three freeze-thaw cycles (thawing at room temperature during 2 h and freezing again at −80°C for at least 12 h).
(4) Long-Term Stability. QC samples (low, medium, and high levels) were determined by analyzing after storage at −80°C for 28 days.

Details of series [2]: method as in PMID 31371986. The note with it: rats; cited from earlier work.
A further series deals with P-gp. Also noted: method as in PMID 31371986. As to conditions: in vitro; cited from earlier work.
For a further series, the system named is BCRP. Details: method as in PMID 31371986. As to conditions: in vitro; cited from earlier work.
On the set-up of series [3]: method as in PMID 29381826. The note with it: patients with advanced NSCLC, cited from earlier work.
Series [4] is described as follows: Pharmacokinetic study of osimertinib in rats after oral administration, with or without ginsenoside Rg3 pretreatment. It counts as in vivo, Male Sprague-Dawley rats. Here is the method:
The rats were randomly divided into two groups (six rats for each group). Osimertinib was dissolved and suspended by 1% carboxymethylcellulose sodium solution. The Rg3 powder in Shenyi capsule was dissolved in saline. In the first period, ginsenoside Rg3 (5 mg/kg) was orally administered to the rats in group I for seven days, and the rats in the other group were orally treated with normal saline for seven days. In the second period, the rats were fasted overnight with free access to water before the experiment. After overnight fasting, ginsenoside Rg3 (5 mg/kg) plus osimertinib (10 mg/kg) was orally administered to the rats in group I, and the rats received oral ginsenoside Rg3 30 min prior to osimertinib at the eighth day. Rats in group II were only orally treated with osimertinib (10 mg/kg) at the eighth day. Blood samples (each 100 μL) were collected via the oculi chorioideae vein at 0.5, 1, 2, 3, 4, 5, 6, 7, 8, 10, 12, 15, and 24 h after treatment in heparinized tubes. The blood samples were immediately centrifuged at 3000 rpm for 10 min. The plasma was separated from blood samples and transferred to clean tubes and immediately stored at −80°C until further analysis. The plasma concentrations of osimertinib were determined according to the aforementioned developed UPLC-MS/MS method.
The pharmacokinetic parameters, including the maximal plasma concentration (Cmax), area under the plasma concentration-time curve (AUC), time for the maximal plasma concentration (Tmax), and mean residence time (MRT), were calculated through noncompartmental analysis by Phoenix WinNonlin (Pharsight Inc., USA, version 1.1) software.

Another series relates to cytochrome P450 (CYP3A). Also noted: method as in PMID 31371986. The note with it: preclinical studies; cited from earlier work.
Setting [5] is: rat plasma, spiked 3 ng/mL, −80°C for 28 days.
Setting [6] is: rat plasma, spiked 30 ng/mL, −80°C for 28 days.
Setting [7] is: rat plasma, spiked 350 ng/mL, −80°C for 28 days.
Setting [8] is: male, Sprague-Dawley, rat, in vivo, po, 10 mg/kg.

The term MRT denotes a mean duration of stay, worked out from the concentration-time curve. For orientation: Tmax means the time from dosing to the highest level. A word on the CL/F: it is clearance divided by bioavailability, as obtained after extravascular dosing. As a reminder, the half-life is the time in which the quantity being followed falls by half. The AUC(0-inf) is the area under the concentration-time curve extrapolated to infinity. By Cmax is commonly meant the maximum level reached in the sampled fluid or tissue. The term MRT last denotes a mean duration of stay, worked out from the concentration-time curve. As a reminder, the Vd/F is the apparent distribution volume after extravascular dosing. For the compound `C=CC(=O)Nc1cc(Nc2nccc(-c3cn(C)c4ccccc34)n2)c(OC)cc1N(C)CCN(C)C` [Osimertinib], in series [1] (spiked 3 ng/mL), the “Autosampler stability, RE” value was 0.6% and the “Autosampler stability, measured concentration Mean ± SD” value turned out to be 3.02 ± 0.01 ng/mL. In addition, in series [1] (spiked 30 ng/mL), the “Autosampler stability, RE” value is given as −4.2% and the “Autosampler stability, measured concentration Mean ± SD” value stood at 28.7 ± 0.8 ng/mL. In addition, in series [1] (spiked 350 ng/mL), the “Autosampler stability, RE” value is 2.5% and the “Autosampler stability, measured concentration Mean ± SD” value came out at 359 ± 26 ng/mL. Moreover, in series [1] (rat plasma, spiked 3 ng/mL), the “Short-term stability, RE” value was found to be 6.8%; the “Short-term stability, measured concentration Mean ± SD” value is 3.20 ± 0.14 ng/mL; the “Freeze-thawing stability, RE” value was 1.0%; the “Freeze-thawing stability, measured concentration Mean ± SD” value is recorded as 3.03 ± 0.02 ng/mL. Besides, in series [1] (setting [5]), the “Long-term stability, RE” value is −1.5% and the “Long-term stability, measured concentration Mean ± SD” value turned out to be 2.96 ± 0.24 ng/mL. For the same compound, in series [1] (rat plasma, spiked 30 ng/mL), the “Short-term stability, RE” value stood at 0.4%; the “Short-term stability, measured concentration Mean ± SD” value was found to be 30.1 ± 1.0 ng/mL; the “Freeze-thawing stability, RE” value is recorded as 0.4%; the “Freeze-thawing stability, measured concentration Mean ± SD” value was 30.1 ± 1.0 ng/mL. In series [1] (setting [6]), the “Long-term stability, RE” value is 9.1% and the “Long-term stability, measured concentration Mean ± SD” value turned out to be 32.7 ± 0.8 ng/mL. For the same compound, in series [1] (rat plasma, spiked 350 ng/mL), the “Short-term stability, RE” value is reported as −2.7%; the “Short-term stability, measured concentration Mean ± SD” value is 341 ± 3 ng/mL; the “Freeze-thawing stability, RE” value is −0.3%; the “Freeze-thawing stability, measured concentration Mean ± SD” value was found to be 349 ± 6 ng/mL. In series [1] (setting [7]), the “Long-term stability, RE” value was found to be 2.4% and the “Long-term stability, measured concentration Mean ± SD” value stood at 359 ± 7 ng/mL. Also, in series [1] (rat plasma, three QC concentrations, room temperature 6 h, autosampler 24 h, three freeze-thaw cycles (−80°C), −80°C for 28 days, all within ±15% of nominal), the “Stability under the conditions investigated” value is reported as “stable”. Moreover, in series [2], the MRT is reported as 14.51 h, the Tmax entry was “about 4.48 h” and the t1/2 was 14.96 h. For the same compound, the “Substrate of P-gp” value in the series on P-gp is given as “substrate”. In the series with BCRP, the “Substrate of BCRP” value is “substrate”. For the same compound, in series [3] (coadministered with itraconazole (strong CYP3A4 inhibitor)), the “Increase of exposure (AUC)” value was 24%. In series [3] (coadministered with rifampicin (CYP3A4 inducer)), the “Decrease of exposure (AUC)” value is listed as 78%. Further, in series [4] (setting [8]), the AUC0-t is 2820 ± 1200 ng·h/mL, the apparent clearance (CL/F) turned out to be 330 ± 135 mL/min/kg, the Vz/F is 130 ± 58 L/kg and the half-life is 4.46 ± 0.94 h. For the same compound, in series [4] (male, Sprague-Dawley, rat, in vivo, po, 10 mg/kg, AUC0-t), the AUC0-t was determined as 2820 ± 1210 ng·h/mL. The AUC(0-inf) in series [4] (male, Sprague-Dawley, rat, in vivo, po, 10 mg/kg, AUC0-∞) turned out to be 2900 ± 1210 ng·h/mL. In series [4] (male, Sprague-Dawley, rat, in vivo, po, 10 mg/kg, C max), the Cmax stood at 317 ± 138 ng/mL. Moreover, in series [4] (male, Sprague-Dawley, rat, in vivo, po, 10 mg/kg, CL/F), the CL/F was 330 mL/min/kg. In series [4] (male, Sprague-Dawley, rat, in vivo, po, 10 mg/kg, MRT0-t), the MRT last was determined as 6.88 ± 0.62 h. Also, the Tmax in series [4] (male, Sprague-Dawley, rat, in vivo, po, 10 mg/kg, T max) was 3.33 ± 0.82 h. In addition, the Vd/F in series [4] (male, Sprague-Dawley, rat, in vivo, po, 10 mg/kg, Vz/F) amounted to 130 ± 58.1 L/kg. The Metabolizing enzyme result in the series with cytochrome P450 (CYP3A) was “principally metabolized by cytochrome P450 (CYP3A)”.
`CC(C)=CCC[C@](C)(O)[C@H]1CC[C@]2(C)[C@@H]1[C@H](O)C[C@@H]1[C@@]3(C)CC[C@H](O[C@@H]4O[C@H](CO)[C@@H](O)[C@H](O)[C@H]4O[C@@H]4O[C@H](CO)[C@@H](O)[C@H](O)[C@H]4O)C(C)(C)[C@@H]3CC[C@]12C` [Rg3, Ginsenoside Rg3]: the “Effect on the main pharmacokinetic parameters of osimertinib” value in series [4] (Rg3 5 mg/kg oral for seven days, coadministered with osimertinib 10 mg/kg oral, rats) is recorded as “no significant effect”.
